From US11254986B2, “Gene signature for immune therapies in cancer” (ALMAC DIAGNOSTICS LIMITED, priority 2015, dated 2022)

Test system: HCC1937 parental and HCC1937-BR cells
Assay: Cell viability assay (CellTitre-Glo), determination of cisplatin sensitivity
Assay type: cell-based
Settings: HCC1937 BRCA1 mutant cell-line relative to BRCA1 corrected cell-line (HCC1937-BR); FIG. 8D
Experimental: For measurement of sensitivity to cisplatin, exponentially growing cells were seeded into 96-well plates. […] Cells were incubated in the presence of drug for 96 hours following which time the viability of the cells was assessed using the Promega CellTitre-Glo luminescent cell viability assay. The sensitivity of the cells was calculated as the percentage of vehicle (DMSO) control.

## N.N.[Cl][Pt][Cl] [cisplatin]
  sensitivity to cisplatin (cell viability): more sensitive
